Legend:
human washed platelets [1] = assay: Platelet ATP release assay (luciferin/luciferase); assay type: cell-based; details: for IC50: Homo sapiens, Platelet
Protocol: Blood was collected from a median cubital vein using a 3.8% sodium citrate anticoagulation tube with a 1:9 dilution ratio. The platelets were washed using a previously described method with slight modification ([Babur et al., 2020]; [Uphaus et al., 2022]). The blood was centrifuged at room temperature at 300 × g for 10 min to separate platelet-rich plasma (PRP). PRP was added to 50 ng/mL of PGE1 and 5 mM EDTA, centrifuged at 2,000 × g for 2 min at room temperature, and the platelet precipitate was obtained after discarding the supernatant. The modified HEPES-Tyrode’s buffer (20 mM 4-(2-Hydroxyethyl)-1-piperazine ethane sulfonic acid [HEPES], pH 7.3, 129 mM NaCl, 2.9 mM KCl, 12 mM NaHCO3, 0.34 mM Na2HPO4, 20 mM HEPES, 5 mM D-Glucose, 1 mM MgCl2) was used to resuspend the platelets, added with 50 ng/mL PGE1 and 5 mM EDTA, and the platelets were washed by centrifugation at 2,000 ×g for 2 min at room temperature. The washed platelets (WP) were resuspended using modified HEPES-Tyrode’s buffer, and the platelet count was adjusted to 150–200 × 10^9/L.
Platelet aggregation and ATP release were detected using the Chrono-Log platelet aggregation instrument (Chrono-Log Corp., Havertown, Pennsylvania, United States), as previously reported ([Babur et al., 2020]). […] In addition, 1 mM CaCl2 and different platelet activators (ADP, collagen, and thrombin; Chrono-Log Corp., Havertown, Pennsylvania, United States; U46619, from Sigma, St. Louis, MO, United States; convulxin, sc-202554 from Santa Cruz Biotechnology, Santa Cruz, CA, United States) were added to each group before the start of the aggregation assay. For the ATP release experiments, the platelets were incubated with 50 ng/mL luciferin and D-luciferase (Cat No. 395; Chrono-Log Corp.) for 2 min before the addition of activators. The platelet aggregation and ATP release curves were traced during experiments.

human washed platelets [2] = assay: Platelet ROS release assay (DCFH-DA); assay type: cell-based; details: for IC50: Homo sapiens, Platelet; for effect on platelet ROS release: luteolin 25 μM, BAY61-3606 63 nM
Protocol: The assay was performed as previously reported with minor modifications ([Arthur et al., 2012]; [Ye et al., 2020]). Briefly, WPs (500 × 10^9/L) were labeled with 5 μM Fluo-3AM (Cat No. IF0150; Solarbio) or 10 μM DCFH-DA (Cat No. D6883; Sigma, St. Louis, MO, United States) at 37°C for 30 min protected from light. […] In addition, 1 mM CaCl2 and collagen or convulxin were added to start the reaction. […] A ROS probe via a fluorescent enzyme marker was added. O2 ^− and H2O2 were measured using 2 μM Amplex Red (Cat No. ST010; Beyotime Institute of Biotechnology, Shanghai, China) or 2 μM Dihydroethidium (DHE, Cat No. S0063; Beyotime Institute of Biotechnology, Shanghai, China). O2 ^− and H2O2 were analyzed using a Fluoroskan Ascent fluorometer (Thermo Fisher, Waltham, Massachusetts, United States).

human washed platelets [3] = assay: Platelet-fibrinogen spreading assay; assay type: cell-based; details: 25 μg/mL fibrinogen-coated slides
Protocol: As previously reported ([Banfi et al., 2022]), 50 μg/mL collagen and 25 μg/mL fibrinogen (Cat No. F3879-100 MG; Sigma-Aldrich, St. Louis, MO, United States) were used to coat coverslips overnight at 4°C. […] The coated slides were washed three times with PBS and blocked with 1% BSA (prepared in PBS) for 1 h at room temperature. The blocking solution was removed, and WPs were added for adhesion experiments. The WPs were allowed to adhere to the slides for 15–60 min at 37°C. The unadhered platelets were removed by PBS. The platelets were fixed with 2% paraformaldehyde solution for 15 min, broken using 1% Triton-100 for 5 min, and stained with phalloidin (1:1,000, Cat No.17466-45-4, Sigma-Aldrich) for 30 min away from light at room temperature. The platelet morphology was observed using an Olympus ix73 microscope (Olympus Corp., Shinjuku, Japan) and photographed. The number of platelet adhesions and spreading area were analyzed and calculated using ImageJ software.

[4] = test system: mesenteric artery thrombosis; assay: Ferric chloride-induced mesenteric thrombosis in mice; assay type: in vivo, C57BL/6 mice; details: luteolin 35 μM/kg or aspirin 0.5 mM/kg i.p., 30 min before FeCl3
Protocol: A method reported in the literature was used to observe mesenteric artery thrombosis in mice ([Bonnard and […], 2015]). […] The mice were anesthetized by an intraperitoneal injection of pentobarbital (45 mg/kg). They were given an intraperitoneal injection of DMSO, luteolin, or aspirin. They were also given an orbital vein injection of 5 μg/kg rhodamine (Cat No. 83697-250 MG; Sigma-Aldrich, St. Louis, MO, United States) ([Bonnard and […], 2015]), respectively. The mesenteric vessels were exposed by opening the abdominal cavity, and small mesenteric arteries with a diameter of approximately 150-250 μm were selected under the microscope. […] During thrombosis, images were taken every 1 min for the first 10 min and every 5 min after 10 min using an MSHOT MD50 camera (Micro Shot Technology Ltd., Guangzhou, China) and an Olympus ix73 microscope (Olympus Corp., Shinjuku, Japan). […] The size of the thrombus formation was calculated using ImageJ software.

integrin αIIbβ3 = assay: PAC-1 expression (integrin αIIbβ3 activation) by flow cytometry; assay type: cell-based, human; details: collagen- and convulxin-induced
Protocol: Platelet membrane protein expression experiments were performed as previously reported, with slight modifications ([Babur et al., 2020]). WPs were added with 10 μM indomethacin to prevent platelet aggregation. After incubation, the WPs were activated by adding 1 mM calcium chloride and agonists to platelets at 37°C. After 30 min, 10 μL of WPs was taken, and the reaction was terminated by adding 90 μL Tyrode’s buffer and 10 mM EDTA. PerCP-coupled anti-CD61 antibody (1:50; Cat No. 336410; Biolegend, San Diego, CA, United States), Alexa Fluor® 647 labeled PAC-1 (1:50; Cat No. 362806; BioLegend), and FITC-coupled anti-CD62p antibody (1:50; Cat No. 555523; BD Biosciences, San Diego, CA, United States) were incubated with platelets for 30 min at 37°C in the dark. The platelet surface fluorescence intensity was analyzed using a FacsCanto II flow cytometer (BD Biosciences, San Diego, CA, United States) to analyze the expression of platelet surface membrane proteins. Cell membrane protein expression data were analyzed using FlowJo software V10.

O=c1cc(-c2ccc(O)c(O)c2)oc2cc(O)cc(O)c12 [Luteolin]
IC50 (human washed platelets [1]; read-out: IC50, inhibition of ATP release, convulxin-induced): 2370 nM | IC50 (human washed platelets [1]; collagen-induced, read-out: IC50, inhibition of ATP release): 2670 nM | effect on platelet ATP release (human washed platelets [1]; convulxin- and collagen-induced, concentration-dependent): significantly inhibited | IC50 (human washed platelets [2]; read-out: IC50, inhibition of ROS release, convulxin (5 ng/mL)-induced): 3510 nM | IC50 (human washed platelets [2]; collagen (10 μg/mL)-induced, read-out: IC50, inhibition of ROS release): 2060 nM | effect on platelet ROS release (human washed platelets [2]; collagen (10 μg/mL)-induced): decreasing levels | effect on platelet ROS release (human washed platelets [2]; convulxin (5 ng/mL)-induced): decreased | platelet spreading on fibrinogen (human washed platelets [3]): inhibited | time of clot obstruction of blood vessels [4]: significantly prolong | time of initial thrombus formation [4]: Neither the 0.5 mM/kg aspirin group or 35 μM/kg luteolin group prolonged | PAC-1 expression (integrin αIIbβ3 inside-out activation) (integrin αIIbβ3): dose-dependently inhibited

From publication PMC10644720 (Frontiers in Pharmacology, 2023)
